# Paper PMC5884652, “New antimicrobial peptide kills drug-resistant pathogens without detectable resistance” (Oncotarget, 2018)
# Read-outs that look alike come from different tables or passages of the source. Ends that are not written are not given here.
# Key:
# S. aureus 5157 = experiment: microbe, parasite or virus in culture; type: cell-based, Staphylococcus aureus; settings: Staphylococcus aureus, 5157; pH (I or II) not given; 10 mM sodium phosphate buffer, 10% LB; 37° C, 24 h; mean of 3 experiments
# Source text: (§1) The method for peptide synthesis has been described in detail previously. E. coli ATCC 25922 (LB media), P. aeruginosa ATCC 15692 (NB+0.5% NaCl media), Listeria monocytogenes ATCC 3710 (LB media), Staphylococcus epidermidis ATCC 12228 (LB media), and S. aureus ATCC 29213 (TSB media) were obtained from the American Type Culture Collection (Manassas, VA, USA). Bacillus subtilis KCTC 1998 (LB media), Salmonella typhimurium KCTC 1926 (NB media), and Proteus vulgaris KCTC 2433 (NB media) were obtained from the Korean Collection for Type Cultures (Jeollabuk-do, Korea). E. coli CCARM 1238 was received from the Culture Collection of Antibiotic Resistant Microbes at Seoul Women’s University, Korea. Drug-resistant P. aeruginosa 3543, 3904, 3547, and 4007 and S. aureus 3126, 0027, 5157, 1635, 4761, 5159, 3359, 2122, 1630, 1870, 3511, 5156, and 3518 were resistant strains isolated from patients with otitis media in a Chonnam National University’s hospital.
# (§2) The antibacterial activities of AMPs (melittin, clavaspirin, and its analogs) and conventional antibiotic drugs (erythromycin, gentamicin, ampicillin, and piperacidin) were determined using microdilution assays. Bacterial cells were cultured at 37° C in appropriate culture media at pH 5.5 or pH 7.4 until collection during the mid-log phase and suspended in 10 mM sodium phosphate buffer (pH 5.5 or pH 7.4) supplemented with 10% culture medium. Thereafter, 2× serial dilutions of each peptide (0.25–128 μM) or antibiotic (0.25–256 μM) were added to sterile 96-well plates, and aliquots of cell suspension (5 × 10^5 colony forming units (cfu)/mL) were seeded into each well. The samples were then incubated at 37° C for 24 h. At the end of the incubation, the minimum inhibitory concentrations (MICs) of the peptides were determined using a VERSA Max microplate reader (Molecular Devices Co., Sunnyvale, CA, USA) at a wavelength of 600 nm. […] MIC values were calculated as the mean of 3 independent experiments conducted in triplicate.
# S. aureus 3126 = experiment: microbe, parasite or virus in culture; type: cell-based, Staphylococcus aureus; settings: Staphylococcus aureus, 3126; pH (I or II) not given; 10 mM sodium phosphate buffer, 10% LB; 37° C, 24 h; mean of 3 experiments
# Source text: as §1, §2
# S. aureus 3511 = experiment: microbe, parasite or virus in culture; type: cell-based, Staphylococcus aureus; settings: Staphylococcus aureus, 3511; pH (I or II) not given; 10 mM sodium phosphate buffer, 10% LB; 37° C, 24 h; mean of 3 experiments
# Source text: as §1, §2
# S. aureus 4761 = experiment: microbe, parasite or virus in culture; type: cell-based, Staphylococcus aureus; settings: Staphylococcus aureus, 4761; pH (I or II) not given; 10 mM sodium phosphate buffer, 10% LB; 37° C, 24 h; mean of 3 experiments
# Source text: as §1, §2
# S. aureus 3518 = experiment: microbe, parasite or virus in culture; type: cell-based, Staphylococcus aureus; settings: Staphylococcus aureus, 3518; pH (I or II) not given; 10 mM sodium phosphate buffer, 10% LB; 37° C, 24 h; mean of 3 experiments
# Source text: as §1, §2
# S. aureus 3359 = experiment: microbe, parasite or virus in culture; type: cell-based, Staphylococcus aureus; settings: Staphylococcus aureus, 3359; pH (I or II) not given; 10 mM sodium phosphate buffer, 10% LB; 37° C, 24 h; mean of 3 experiments
# Source text: as §1, §2
# S. aureus 1870 = experiment: microbe, parasite or virus in culture; type: cell-based, Staphylococcus aureus; settings: Staphylococcus aureus, 1870; pH (I or II) not given; 10 mM sodium phosphate buffer, 10% LB; 37° C, 24 h; mean of 3 experiments
# Source text: as §1, §2
# S. aureus 5159 = experiment: microbe, parasite or virus in culture; type: cell-based, Staphylococcus aureus; settings: Staphylococcus aureus, 5159; pH (I or II) not given; 10 mM sodium phosphate buffer, 10% LB; 37° C, 24 h; mean of 3 experiments
# Source text: as §1, §2
# S. aureus 0027 = experiment: microbe, parasite or virus in culture; type: cell-based, Staphylococcus aureus; settings: Staphylococcus aureus, 0027; pH (I or II) not given; 10 mM sodium phosphate buffer, 10% LB; 37° C, 24 h; mean of 3 experiments
# Source text: as §1, §2
# S. aureus 1630 = experiment: microbe, parasite or virus in culture; type: cell-based, Staphylococcus aureus; settings: Staphylococcus aureus, 1630; pH (I or II) not given; 10 mM sodium phosphate buffer, 10% LB; 37° C, 24 h; mean of 3 experiments
# Source text: as §1, §2
# S. aureus 2122 = experiment: microbe, parasite or virus in culture; type: cell-based, Staphylococcus aureus; settings: Staphylococcus aureus, 2122; pH (I or II) not given; 10 mM sodium phosphate buffer, 10% LB; 37° C, 24 h; mean of 3 experiments
# Source text: as §1, §2
# S. aureus 5156 = experiment: microbe, parasite or virus in culture; type: cell-based, Staphylococcus aureus; settings: Staphylococcus aureus, 5156; pH (I or II) not given; 10 mM sodium phosphate buffer, 10% LB; 37° C, 24 h; mean of 3 experiments
# Source text: as §1, §2
# S. aureus 1635 = experiment: microbe, parasite or virus in culture; type: cell-based, Staphylococcus aureus; settings: Staphylococcus aureus, 1635; pH (I or II) not given; 10 mM sodium phosphate buffer, 10% LB; 37° C, 24 h; mean of 3 experiments
# Source text: as §1, §2
# P. aeruginosa 3904 = experiment: microbe, parasite or virus in culture; type: cell-based, Pseudomonas aeruginosa; settings: pH (I or II) not given; 10 mM sodium phosphate buffer, 10% LB; 37° C, 24 h; mean of 3 experiments
# Source text: as §1, §2
# P. aeruginosa 3543 = experiment: microbe, parasite or virus in culture; type: cell-based, Pseudomonas aeruginosa; settings: pH (I or II) not given; 10 mM sodium phosphate buffer, 10% LB; 37° C, 24 h; mean of 3 experiments
# Source text: as §1, §2
# P. aeruginosa 4007 = experiment: microbe, parasite or virus in culture; type: cell-based, Pseudomonas aeruginosa; settings: pH (I or II) not given; 10 mM sodium phosphate buffer, 10% LB; 37° C, 24 h; mean of 3 experiments
# Source text: as §1, §2
# P. aeruginosa 3547 = experiment: microbe, parasite or virus in culture; type: cell-based, Pseudomonas aeruginosa; settings: pH (I or II) not given; 10 mM sodium phosphate buffer, 10% LB; 37° C, 24 h; mean of 3 experiments
# Source text: as §1, §2
# P. aeruginosa ATCC 15692 = type: cell-based, Pseudomonas aeruginosa; settings: 10 mM sodium phosphate buffer, 10% LB, 37° C, 24 h, mean of 3 experiments
# Source text: as §1, with “E. coli ATCC 25922 (LB media), P. aeruginosa ATCC 15692 (NB+0.5% NaCl media), Listeria monocytogenes ATCC 3710 (LB media), Staphylococcus epidermidis ATCC 12228 (LB media), and S. aureus ATCC 29213 (TSB media) were obtained from the American Type Culture Collection (Manassas, VA, USA).” left out
# as §2, with “Bacterial cells were cultured at 37° C in appropriate culture media at pH 5.5 or pH 7.4 until collection during the mid-log phase and suspended in 10 mM sodium phosphate buffer (pH 5.5 or pH 7.4) supplemented with 10% culture medium.” left out
# [1] = tested on: Salmonella typhimurium KCTC 1926; type: cell-based; settings: 10 mM sodium phosphate buffer, 10% LB, 37° C, 24 h, mean of 3 experiments
# Source text: as §1, with “Bacillus subtilis KCTC 1998 (LB media), Salmonella typhimurium KCTC 1926 (NB media), and Proteus vulgaris KCTC 2433 (NB media) were obtained from the Korean Collection for Type Cultures (Jeollabuk-do, Korea).” left out
# as §2
# [2] = tested on: Proteus vulgaris KCTC 2433; type: cell-based; settings: 10 mM sodium phosphate buffer, 10% LB, 37° C, 24 h, mean of 3 experiments
# Source text: as §1, with “Bacillus subtilis KCTC 1998 (LB media), Salmonella typhimurium KCTC 1926 (NB media), and Proteus vulgaris KCTC 2433 (NB media) were obtained from the Korean Collection for Type Cultures (Jeollabuk-do, Korea).” left out
# as §2
# [3] = tested on: human red blood cells (hRBCs); experiment: Hemolysis; type: cell-based; settings: PBS buffer containing 8% hRBCs, 1 h, 37° C, absorbance 414 nm, triplicate
# Procedure: Fresh human red blood cells (hRBCs) from healthy donors were centrifuged at 800 × g and washed with phosphate-buffered saline (PBS) until the supernatant was clear. Twofold serial dilutions of the peptides in PBS were added to a 96-well plate, after which the hRBCs were added to obtain a final concentration of 8% (vol/vol). The samples were then incubated with mild agitation for 1 h at 37° C. The samples were then centrifuged at 800 × g for 10 min, and the absorbance of the supernatant was measured at 414 nm. All the measurements were performed in triplicate, and the percentages of hemolysis were calculated using equation 1: % hemolysis=[(A414 in peptide solution−A414 in PBS)/(A414 in […]−A414 in PBS)]×100 (1)
# Where 100% hemolysis was defined as the absorbance measured from hRBCs exposed to 1% Triton X-100 and zero hemolysis was characterized using hRBCs alone in PBS [40].
# E. coli ATCC 25922 = type: cell-based, Escherichia coli; settings: 10 mM sodium phosphate buffer, 10% LB, 37° C, 24 h, mean of 3 experiments
# Source text: as §1, §2
# [4] = tested on: Bacillus subtilis KCTC 1998; type: cell-based; settings: 10 mM sodium phosphate buffer, 10% LB, 37° C, 24 h, mean of 3 experiments
# Source text: as §1, §2
# [5] = tested on: Listeria monocytogenes ATCC 3710; type: cell-based; settings: 10 mM sodium phosphate buffer, 10% LB, 37° C, 24 h, mean of 3 experiments
# Source text: as §1, §2
# [6] = tested on: Staphylococcus epidermidis ATCC 12228; type: cell-based; settings: 10 mM sodium phosphate buffer, 10% LB, 37° C, 24 h, mean of 3 experiments
# Source text: as §1, §2
# [7] = tested on: HaCaT (human keratinocyte) cells; experiment: Cytotoxicity, MTT assay; type: cell-based; settings: DMEM containing 10% FBS and 1% PS, 24 h, 37° C
# Procedure: To examine the cytotoxic effects of the peptides, HaCaT (human keratinocyte) cells were cultured in Dulbecco’s modified Eagle’s medium (DMEM) supplemented with antibiotics (100 U/ml penicillin and 100 μg/ml streptomycin) and 10% fetal calf serum at 37° C in a humidified chamber under a 5% CO2 atmosphere. Growth inhibition was evaluated using 3-(4, 5-dimethylthizol-2-yl)-2, 5-diphenyltetrazolium bromide (MTT) assays to measure cell viability. After cells were seeded into a 96-well plate at a density of 2 × 10^4/well and incubated for 24 h, twofold serial dilutions of each peptide in DMEM were added to the wells, and the cells were incubated for an additional 24 h at 37° C. Thereafter, 10 μl of MTT (5 mg/ml) was added to each well, and the plate was incubated for 4 h. The supernatants were then removed, and 50 μl of DMSO was added to each well to dissolve any remaining precipitate. Finally, the absorbance at 570 nm was measured using a microtiter reader.
# S. aureus ATCC 29213 = type: cell-based, Staphylococcus aureus; settings: 10 mM sodium phosphate buffer, 10% LB, 37° C, 24 h, mean of 3 experiments
# Source text: as §1, with “E. coli ATCC 25922 (LB media), P. aeruginosa ATCC 15692 (NB+0.5% NaCl media), Listeria monocytogenes ATCC 3710 (LB media), Staphylococcus epidermidis ATCC 12228 (LB media), and S. aureus ATCC 29213 (TSB media) were obtained from the American Type Culture Collection (Manassas, VA, USA).” left out
# as §2
compound,measurement,setting,value
CC[C@H]1OC(=O)[C@H](C)[C@@H](O[C@H]2C[C@@](C)(OC)[C@@H](O)[C@H](C)O2)[C@H](C)[C@@H](O[C@@H]2O[C@H](C)C[C@H](N(C)C)[C@H]2O)[C@](C)(O)C[C@@H](C)C(=O)[C@H](C)[C@@H](O)[C@]1(C)O [erythromycin],MIC,S. aureus 5157,16 µM
same,MIC,S. aureus 3126,128 µM
same,MIC,S. aureus 3511,> 256 µM
same,MIC,S. aureus 4761,> 256 µM
same,MIC,S. aureus 3518,> 256 µM
same,MIC,S. aureus 3359,> 256 µM
same,MIC,S. aureus 1870,> 256 µM
same,MIC,S. aureus 5159,16 µM
same,MIC,S. aureus 0027,> 256 µM
same,MIC,S. aureus 1630,> 256 µM
same,MIC,S. aureus 2122,> 256 µM
same,MIC,S. aureus 5156,> 256 µM
same,MIC,S. aureus 1635,> 256 µM
CCN1CCN(C(=O)N[C@@H](C(=O)N[C@@H]2C(=O)N3[C@@H]2SC(C)(C)[C@@H]3C(=O)O)c2ccccc2)C(=O)C1=O [piperacidin],MIC,P. aeruginosa 3904,>800 µM
same,MIC,P. aeruginosa 3543,>800 µM
same,MIC,P. aeruginosa 4007,>800 µM
same,MIC,P. aeruginosa 3547,200 µM
FLRFIGSVIHGIGHLVHHIGVAL-NH2 [Clavaspirin],"MIC, P. aeruginosa",P. aeruginosa ATCC 15692; pH 5.5 (I),32 µM
same,"MIC, P. aeruginosa",P. aeruginosa ATCC 15692; pH 7.4 (II),>64 µM
same,"MIC, S. typhimurium",[1]; pH 5.5 (I),32 µM
same,"MIC, S. typhimurium",[1]; pH 7.4 (II),64 µM
same,"MIC, P. vulgaris",[2]; pH 5.5 (I),8 µM
same,"MIC, P. vulgaris",[2]; pH 7.4 (II),64 µM
same,HC10 (hemolytic activity),[3],37
same,HC50 (hemolytic activity),[3],64
same,"MIC, E. coli",E. coli ATCC 25922; pH 5.5 (I),2 µM
same,"MIC, E. coli",E. coli ATCC 25922; pH 7.4 (II),64 µM
same,"MIC, B. subtilis",[4]; pH 5.5 (I),16 µM
same,"MIC, B. subtilis",[4]; pH 7.4 (II),64 µM
same,"MIC, L. monocytogenes",[5]; pH 5.5 (I),16 µM
same,"MIC, L. monocytogenes",[5]; pH 7.4 (II),64 µM
same,"MIC, S. epidermidis",[6]; pH 5.5 (I),4 µM
same,"MIC, S. epidermidis",[6]; pH 7.4 (II),32 µM
same,EC10 (effective concentration in HaCaT cells),[7],66
same,"MIC, S. aureus",S. aureus ATCC 29213; pH 5.5 (I),16 µM
same,"MIC, S. aureus",S. aureus ATCC 29213; pH 7.4 (II),64 µM
